Where “and” joins values, the source holds several entries; their conditions need not be identical. Identical values can stand only once.
What was measured:
[1] = system: Pseudomonas aeruginosa ATCC 27853; assay: Zones of inhibition on cation adjusted Mueller Hinton agar (Example 2); assay type: cell-based; conditions: 50 μL drop on P. aeruginosa lawn, 37° C., 24 hours
Description: (§1) A compound was screened for its ability to create zones of inhibition on cation adjusted Mueller Hinton agar. It is believed that the compound of Example 2 may be represented by the structure disclosed in FIG. 4H. To perform this test, lawns of methicillin-resistant Staphylococcus aureus (MRSA) or Pseudomonas aeruginosa ATCC 27853 were made on cation adjusted Mueller Hinton agar using standard microbiological techniques. Immediately after plating bacteria on agar, a 50 μL drop of the compound was placed onto the agar surface. The compound was tested in duplicate at 100 μg/mL, 50 μg/mL, 25 μg/mL and 10 μg/mL. All plates were incubated at 37° C. for 24 hours.

[2] = system: P. aeruginosa ATCC 27853; assay: MIC, CLSI M26-A microdilution (Example 2); assay type: cell-based; conditions: Pseudomonas aeruginosa, ATCC27853, 10^5 to 10^2 cells/mL in 24 hours
Description: (§2) The second test determined the minimum inhibitory concentration (MIC) of the compound against MRSA and P. aeruginosa ATCC 27853. […] This definition was consistent with the Clinical and Laboratory Standards Institute (CLSI). More specifically, the microdilution method as outlined in the M26-A CLSI guideline was used. All tests were performed with cation adjusted Mueller Hinton broth.

[3] = system: P. aeruginosa ATCC 27853 biofilm; assay: MBEC assay (Calgary Biofilm Device), 100% eradication (Example 2); assay type: cell-based, Pseudomonas aeruginosa; conditions: eradicate 100% of detectable biofilm, listed as PBC-51
Description: (§3) In addition to determining the MIC, the minimum biofilm eradication concentration (MBEC) of PBC-51 was also determined. The MBEC was determined using the MBEC assay, formerly known as the Calgary Biofilm Device, developed by Innovotech. In this instance, the MBEC was defined as the amount of antimicrobial required to eradicate 100% of detectable biofilm after being grown in the MBEC device. To grow the biofilms within this device, 150 μL of solution containing a concentration of 10^5 cells/mL were inoculated into each well of a 96-well plate. A lid containing 96 pegs was placed onto the plate and incubated for 24 hours at 37° C. while being shaken at 110 rpm. Biofilms developed on the surface of the polystyrene pegs within the 96-well plate. After 24 hours, each peg contained between 10^5 and 10^6 cells in well-established biofilms. The lid with pegs was transferred to a 96-well plate that contained 200 μL of varying concentrations of the compound and was incubated at 37° C. for an additional 24 hours. The plate was then sonicated, and the biofilms quantified using a 10-fold dilution series to determine the MBEC.

[4] = system: MRSA biofilm; assay: as above; assay type: cell-based, methicillin-resistant Staphylococcus aureus; conditions: eradicate 100% of detectable biofilm, listed as PBC-51
Description: as §3

[5] = system: P. aeruginosa ATCC 27853 biofilm; assay: EBEC on PEEK membranes, 100% eradication (Example 2); assay type: cell-based, Pseudomonas aeruginosa; conditions: PEEK membrane, eradicate all detectable amounts (100%), listed as PBC-51
Description: (§4) The fourth test that was performed was the effective biofilm eradication concentration (EBEC). To determine the EBEC, biofilms of MRSA and P. aeruginosa ATCC 27853 were grown on the surface of PEEK membranes using a previously established protocol. Briefly, 500 mL of brain heart infusion (BHI) broth were inoculated with 10^5 cells/mL of MRSA or P. aeruginosa. BHI broth was placed into a membrane biofilm reactor and placed on a hot plate set at 34° C. for 24 hours with a stir bar rotating at 130 rpm. Following the initial 24-hour growth period, a 10% BHI broth solution was flowed through the reactor at a rate of 6.944 mL/min for another 24 hours. After 48 hours of growth, each PEEK membrane had biofilm growth on it. In this experiment, there were ˜2×10^11 cells of MRSA per PEEK membrane and −2×10^10 cells of P. aeruginosa per PEEK membrane. The EBEC was defined as the concentration of the compound that was required to eradicate all detectable amounts (100%) of bacteria within the biofilms.

[6] = system: MRSA; assay: Zones of inhibition on cation adjusted Mueller Hinton agar (Example 2); assay type: cell-based, methicillin-resistant Staphylococcus aureus; conditions: 50 μL drop on MRSA lawn, 37° C., 24 hours
Description: as §1

[7] = system: Columbia blood agar; assay: Hemolytic nature on Columbia blood agar; assay type: cell-based; conditions: 100 μg/mL, 50 μg/mL and 25 μg/mL; 20 μL on Columbia blood agar, 37° C., 24 hours
Description: In addition to determining the antimicrobial efficacy of the compound, an initial test was performed to determine its hemolytic nature. To do so, the compound was suspended in concentrations of 100 μg/mL, 50 μg/mL and 25 μg/mL. Twenty μL of each concentration was placed onto the surface of Columbia blood agar and incubated at 37° C. for 24 hours.

[8] = system: MRSA; assay: MIC, CLSI M26-A microdilution (Example 2); assay type: cell-based, methicillin-resistant Staphylococcus aureus; conditions: Staphylococcus aureus, 10^5 to 10^2 cells/mL in 24 hours
Description: as §2

[9] = system: biofilms of MRSA and P. aeruginosa; assay: Visual observation of biofilm dispersal from PEEK membranes; assay type: cell-based; conditions: 300, 200 and 100 μg/mL
Description: Initial tests based on visual observation were performed to determine the ability of the compound to disperse biofilms. This was done by observing the biofilms of MRSA and P. aeruginosa that had grown on the surface of PEEK membranes after they had been placed in three separate concentrations of the compound (300 μg/mL, 200 μg/mL and 100 μg/mL). Biofilms were observed every 30 minutes to see if they separated from the PEEK membrane.

[10] = system: MRSA biofilm; assay: EBEC on PEEK membranes, 100% eradication (Example 2); assay type: cell-based, methicillin-resistant Staphylococcus aureus; conditions: PEEK membrane, eradicate all detectable amounts (100%), listed as PBC-51
Description: as §4

With `CC(C)(C)OC(=O)NCCCNCCCNCc1cc(CNCCCNCCCN)cc(CNCCCNCCCN)c1` [CZ-51] the “concentration at which partial clearing was seen” value [1] was 25 µg/mL, the “concentration at which total clearing was seen” value [1] was 50 µg/mL and the MIC [2] was ~6 µg/mL and ~11.3 µM. For the same molecule, the MBEC [3] was ~35 μg/mL and ~65.92 μM, the MBEC [4] was < 25 μg/mL and < 47 μM and the EBEC [5] was < 100 μg/mL and < 188.33 μM. The “concentration at which total clearing was seen” value [6] was 10 µg/mL, the hemolytic activity [7] was “none of these concentrations displayed hemolytic activity” and the MIC [8] was ~1 µg/mL and ~1.88 µM. For the same molecule, the “biofilm separated from the PEEK membrane by 24 hours” value [9] was “all detectable amounts of biofilm had separated”, the “biofilms separated from the PEEK membrane by 4 hours” value [9] was “approximately half” and the “time at which biofilms began to separate from the PEEK membranes” value [9] was no more than 2 h. The EBEC [10] was ~250 μg/mL and ~470.88 μM.

— patent publication US20150274639A1, “METHODS OF USE FOR COMPOSITIONS COMPRISING A BIOCIDAL POLYAMINE” (Curza Global, LLC, priority 2013, published 2015)
